Test results reported in patent US20060205822A1, “1-Aminocyclohexane derivatives for the treatment of multiple sclerosis, emotional lability and pseudobulbar affect” (Forest Laboratories, Inc., priority 2004, published 2006).

Experiments:
[1] = test system: acquired pendular nystagmus; conditions: physical symptom of multiple sclerosis; cited from earlier work
adult rats = conditions: cited from earlier work
NMDA receptor = conditions: noncompetitive antagonist; cited from earlier work
[2] = test system: thermal hyperalgesia and mechanical allodynia; conditions: relatively high doses; without obvious effects on motor reflexes; cited from earlier work
[3] = test system: spastic hind limbs of EAE mice; assay: Spasticity (resistance to hindlimb flexion against a strain gauge) in the EAE model in mice; format: in vivo, ABH mice; parameters: Resistance to flexion, Diff of Means: unit not given here
Text: Induction of EAE. Induction of EAE in animal models is well known in the art. (Raine, Chapter 16, Handbook of Clinical Neurology, vol. 3(47): Demyelinating Diseases, Koetsier, ed., (Elsevier Science Publishers 1985). In the present protocol, 6-8 week ABH mice are immunized with mouse spinal cord homogenate in Freund's complete adjuvant on day 0 & 7. (Baker et al. 1990. J. Neuroimmunol 28:261 O'Neill et al 1992. J. Neuroimmunol. 38:53). Animals will develop relapsing remitting episodes of paralysis at approximately 3-4 week intervals. These will be monitored daily from day 11 onwards to ensure severity levels of paralysis and maintained with humane limits according to the Home Office, Animals (Scientific Procedures) Act […]. Spasticity (stiff hind limbs) after 2-3 relapse episodes (approximately 80-120 days post-induction) will be allowed to develop. Animals with visually spastic limbs will be selected for assessment of the TEST compound.
Resistance to flexion against a strain gauge will be the primary assessment (Baker et al. 2000. Nature), secondary outcome measures will be the presence or absence of spastic tails.
Spasticity. The “stiffness” of spastic limbs is measured using a purpose built strain gauge, and assessed by the resistance force against hindlimb flexion. The limb is extended manually twice prior to measurement of each limb. Limbs showing severe crossing or flexion will not be analyzed. The signal is amplified and digitized using DAS16 card (Amplicon, Brighton UK.) and acquired using Dacquire V10 software and analyzed using Spike 2 software (Baker et al 2000). Left and right hindlimbs are analyzed alternately and typically 5-8 readings per limb were measured at each time point. The mean values will be calculated and converted to forces in Newtons. Data will be analyzed using one-way repeated measures analysis of variance (ANOVA) incorporating Student-Newman-Keuls posthoc test. Differences to baseline will also be compared using Paired t tests.
Administration of compound. The TEST compounds are dissolved in vehicle (to be supplied by the SPONSOR-preferably this will be a saline solution) using doses (to be supplied by the SPONSOR). These will be delivered by the intravenous, intraperitoneal or oral route (to be supplied by the sponsor). Resistance to flexion will be assessed at 10 minutes 30 minutes and 60 minutes following intravenous, intraperitoneal injection, 30, 60 and 90 minutes after oral administration. (Escalating doses (up to three) may be used in the same cohort of animals following wash-out to allow for direct comparison of the dose response).

SMILES: CC12CC3CC(C)(C1)CC(N)(C3)C2 [Memantine, 1-amino-3,5-dimethyl adamantane]
- Treatment of acquired pendular nystagmus [1]: effective
- Formation of hippocampal long-term potentiation (adult rats): enhance the formation of hippocampal long-term potentiation
- Spatial memory abilities (adult rats): improve spatial memory abilities
- Affinity for the NMDA receptor (NMDA receptor): moderate affinity
- Thermal hyperalgesia and mechanical allodynia [2]: selectively block thermal hyperalgesia and mechanical allodynia

SMILES: CC1(C)CC(C)(C)CC(C)(N)C1 [Neramexane, 1-amino-1,3,3,5,5-pentamethylcyclohexane]
- Resistance to flexion, Diff of Means ([3]; 3.1 mg/kg, 0 min vs. 10 min, P<0.001): 0.171
- Resistance to flexion, Diff of Means ([3]; 3.1 mg/kg, 0 min vs. 30 min, P<0.001): 0.142
- Resistance to flexion, Diff of Means ([3]; 3.1 mg/kg, 0 min vs. 60 min, P<0.001): 0.218
- Resistance to flexion, Mean ([3]; 3.1 mg/kg, 10 min post-injection, baseline 0 min 0.593, N=13): 0.422 N
- Resistance to flexion, Diff of Means ([3]; 3.1 mg/kg, 10 min vs. 60 min, P 0.228, Do Not Test): 0.0474
- Resistance to flexion, Mean ([3]; 3.1 mg/kg, 30 min post-injection, baseline 0 min 0.593, N=13): 0.451 N
- Resistance to flexion, Diff of Means ([3]; 3.1 mg/kg, 30 min vs. 10 min, P 0.453, Do Not Test): 0.0293
- Resistance to flexion, Diff of Means ([3]; 3.1 mg/kg, 30 min vs. 60 min, P 0.130, not significant): 0.0767
- Resistance to flexion, Mean ([3]; 3.1 mg/kg, 60 min post-injection, baseline 0 min 0.593, N=13): 0.374 N
- Resistance to flexion, Diff of Means ([3]; 6.2 mg/kg, 0 min vs. 10 min, P 0.999, not significant): 0.0000691
- Resistance to flexion, Diff of Means ([3]; 6.2 mg/kg, 0 min vs. 30 min, P 0.013): 0.117
- Resistance to flexion, Diff of Means ([3]; 6.2 mg/kg, 0 min vs. 60 min, P<0.001): 0.172
- Resistance to flexion, Mean ([3]; 6.2 mg/kg, 10 min post-injection, baseline 0 min 0.567, N=11): 0.567 N
- Resistance to flexion, Diff of Means ([3]; 6.2 mg/kg, 10 min vs. 30 min, P 0.005): 0.117
- Resistance to flexion, Diff of Means ([3]; 6.2 mg/kg, 10 min vs. 60 min, P<0.001): 0.172
- Resistance to flexion, Mean ([3]; 6.2 mg/kg, 30 min post-injection, baseline 0 min 0.567, N=11): 0.450 N
- Resistance to flexion, Diff of Means ([3]; 6.2 mg/kg, 30 min vs. 60 min, P 0.162, not significant): 0.0549
- Resistance to flexion, Mean ([3]; 6.2 mg/kg, 60 min post-injection, baseline 0 min 0.567, N=11): 0.395 N
- Resistance to flexion, Diff of Means ([3]; 12.3 mg/kg, 0 min vs. 10 min, P<0.001): 0.114
- Resistance to flexion, Diff of Means ([3]; 12.3 mg/kg, 0 min vs. 30 min, P<0.001): 0.103
- Resistance to flexion, Diff of Means ([3]; 12.3 mg/kg, 0 min vs. 60 min, P<0.001): 0.189
- Resistance to flexion, Mean ([3]; 12.3 mg/kg, 10 min post-injection, baseline 0 min 0.453, N=14): 0.339 N
- Resistance to flexion, Diff of Means ([3]; 12.3 mg/kg, 10 min vs. 60 min, P 0.007): 0.0757
- Resistance to flexion, Mean ([3]; 12.3 mg/kg, 30 min post-injection, baseline 0 min 0.453, N=14): 0.350 N
- Resistance to flexion, Diff of Means ([3]; 12.3 mg/kg, 30 min vs. 10 min, P 0.693, not significant): 0.0106
- Resistance to flexion, Diff of Means ([3]; 12.3 mg/kg, 30 min vs. 60 min, P 0.007): 0.0863
- Resistance to flexion, Mean ([3]; 12.3 mg/kg, 60 min post-injection, baseline 0 min 0.453, N=14): 0.263 N
- Level of hind limb spasticity ([3]; all 3 doses (3.1, 6.2, 12.3 mg/kg), affected EAE mice): reduced the level of hind limb spasticity
- Affinity for the NMDA receptor (NMDA receptor): moderate affinity
- Thermal hyperalgesia and mechanical allodynia [2]: selectively block thermal hyperalgesia and mechanical allodynia
